Laboratory results taken from US7666996B2, “Casein derived peptides and uses thereof” (priority 2000, dated 2010).

Assays:
Type in all cases: in vivo
[1] = test system: Non-Obese Diabetic (NOD) mice; test: Glucosuria in Non-Obese Diabetic (NOD) mice; settings: for Healthy/Total (sugar not detected in urine): female NOD mice, 100 μg synthetic peptide once weekly for 5 weeks, evaluated after 25 weeks; for Urine Sugar: individual healthy NOD mice, after 25 weeks; for prevention of glucosuria (in words): 100 μg once weekly for 5 weeks, 25 weeks
Procedure: Juvenile (Type I, IDDM) diabetes in Non-Obese Diabetic (NOD) mice:
Peptides derived from natural casein: NOD mice are a commonly used model for research of autoimmune disease and human Juvenile Diabetes. Six week old female NOD mice received either one or two injections per week of 100 μg of peptides derived from natural casein, for a total of 5 or 10 treatments. Control mice received no treatment. The severity of disease was determined according to glucosuria, which was measured using Combi test sticks [Gross, D. J. et al (1994), Diabetology, 37:1195]. Results were expressed as the percent of glucosuria-free mice in each sample over a 365-day period.
Synthetic peptides derived from casein: In another experiment, 6 week old female NOD mice received one injection per week of 100 μg of Synthetic peptides derived from casein for a total of 5 treatments. Control mice received no treatment. Results were expressed as the number of healthy mice in the various treated groups.

[2] = test system: Non-Obese Diabetic (NOD) mice; test: Intraperitoneal Glucose Tolerance Test (IPGTT) in NOD mice; settings: individual healthy NOD mice, 25 weeks after peptides; for IPGT TEST 60 min. post load plasma glucose: 60 min after i.p. glucose 1 g/kg; for IPGT TEST 0 min. (pre-load) plasma glucose: before glucose load
Procedure: Intraperitoneal Glucose Tolerance Test (IPGTT): The glucose tolerance test is the definitive method for investigating glucose metabolism and diabetic tendencies in mammals. Twenty five (25) weeks after receiving Synthetic peptides derived from casein, response to a glucose load was assessed with an intraperitoneal glucose tolerance test. Glucose injection consisted of 1 g/kg body weight. Glycemic values were determined from blood drawn prior to test (0 minutes) and 60 minutes after loading.

[3] = test system: female C57B⅙j mice fed an atherogenic diet; test: Diet-induced hypercholesterol/hyperlipidemia in mice; settings: one week post 1 mg i.p.
Procedure: The ability of synthetic casein derived peptides to reduce cholesterol levels in 7-week old female C57B⅙j mice was assessed after feeding an atherogenic diet. The mice were divided into groups of 8. One control group was fed a normal diet. A second control group was fed the modified Thomas Hartroft diet containing cholate (#TD 88051: Teklad, Madison, Wis.) [Gerber, D. W. et al., Journal of Lipid Research. 42, 2001]. The remaining experimental groups were all fed the modified Thomas Hartroft diet.
Cholestrol blood levels were determined according to Roche Cholesterol Assay based on Roeschlou & Allin enzymatic method (Roche, Inc., Germany).

[4] = test system: irradiated, bone marrow transplanted mice; test: Leukocyte and platelet reconstitution in bone marrow transplant recipient mice; settings: for white blood cell reconstitution (in words): F1 mice, 750 cGy, 1 mg i.v., days 5 and 7 post-reconstitution
Procedure: Leukocyte and platelet reconstitution in bone marrow transplant recipient Mice: BALB/c mice were sub-lethally irradiated at a source to skin distance of 70 cm, dosage of 50 cGy per minute, for a total of 600 cGy. The irradiated mice were […] casein, synthetic peptides derived from casein (13-26 amino acids, see Table 3 above), or human serum albumin (controls), following a double-blinded protocol. Leukocyte reconstitution was determined according to cell count in peripheral blood collected at indicated intervals from 6 to 12 days post treatment. Platelet reconstitution was determined by cell count in blood collected from the retro orbital plexus, into EDTA-containing vials, at indicated intervals from day 6 to day 15 post treatment. […]
In a third series of experiments, the mice were irradiated (800 cGy), reconstituted and injected intraperitoneally with 1.0 mg synthetic peptides derived from casein (peptides 3a and 4P, representing the first 6 and 12 amino acids of the N terminus of αS1 casein, respectively—see Table 3 above) daily, on days 4, 5, 6 and 7 post-transplantation. Platelet reconstitution was assayed at 10 and 12 days post-transplantation.
In a fourth series of experiments, F1 mice were irradiated (750 cGy), reconstituted with syngeneic bone marrow, and injected intravenously 24 hours later with 1 mg per mouse of synthetic peptides derived from casein representing amino acids 1-22 of the N terminus of αS1 casein. In addition, 2 (two) groups of mice were treated each with a natural fraction of αS1 casein position 1-23, and a fraction of peptides derived from natural κ-casein, representing amino acid coordinates 106-169 of κ-casein (SEQ ID NO: 27). WBC counts were conducted on days 5, 7, 10 and 12 post-transplantation.

[5] = 800 cGy, 1.0 mg i.p. daily, days 4-7

Substance	Healthy/Total (sugar not detected in urine) [1]	Urine Sugar [1]	IPGT TEST 60 min. post load plasma glucose [2] [mg/dL]	also measured
RPKHPIKH [Y, synthetic peptide, N-terminal 8 amino acids of αS1 casein]	1/5	Negative	138	IPGT TEST 0 min. (pre-load) plasma glucose [2]: 121 mg/dL
RPKHPIKHQG [1a, synthetic peptide, N-terminal 10 amino acids of αS1 casein]	1/5	Negative	106	IPGT TEST 0 min. (pre-load) plasma glucose [2]: 88 mg/dL
RPKHPIKHQGL [2a, synthetic peptide, N-terminal 11 amino acids of αS1 casein]	4/5	Negative	–	prevention of glucosuria (in words) [1]: highly effective; HDL ([3]; diet control 54.5): 41 mg/dL; LDL ([3]; diet control 326): 221 mg/dL; Total cholesterol (TC) ([3]; diet control 393): 279 mg/dL
RPKHPIKHQGLP [3a, synthetic peptide, N-terminal 12 amino acids of αS1 casein]	3/5	Negative	–	increase in platelet counts over control, 10 days post transplantation [4, 5]: up to 35.5%; increase in platelet counts over control, 12 days post transplantation [4, 5]: up to 13.5%; platelet counts, 12 days post transplantation [4, 5]: 622000 mL⁻¹; platelet counts, 10 days post transplantation ([4]; 800 cGy, 1.0 mg i.p. daily, days 4-7, control 169): 229000 mL⁻¹; prevention of glucosuria (in words) [1]: highly effective
RPKHPIKHQGLPQ [A, synthetic peptide, N-terminal 13 amino acids of αS1 casein]	2/5	Negative	–	–
RPKHPIKHQGLPQE [B, synthetic peptide, N-terminal 14 amino acids of αS1 casein]	2/5	Negative	–	IPGT TEST 0 min. (pre-load) plasma glucose [2]: 130 mg/dL
RPKHPIKHQGLPQEV [C, synthetic peptide, N-terminal 15 amino acids of αS1 casein]	–	–	–	peripheral white blood cell counts, day 10 ([4]; BALB/c, 600 cGy, 1 mg per mouse intraperitoneal, control 1.67): 1.72 ×10^6 cells per ml; peripheral white blood cell counts, day 12 ([4]; BALB/c, 600 cGy, 1 mg per mouse intraperitoneal, control 4.64): 6.54 ×10^6 cells per ml
RPKHPIKHQGLPQEVL [D, synthetic peptide, N-terminal 16 amino acids of αS1 casein]	2/5	Negative	–	–
RPKHPIKHQGLPQEVLNENLL [synthetic peptide, N-terminal 21 amino acids of αS1 casein]	2/5	Negative	138	–
RPKHPIKHQGLPQEVLNENLLRF [synthetic peptide, N-terminal 23 amino acids of αS1 casein]	2/5	Negative	143	–
α-S1 1-23: gel filtration fraction of natural casein peptides: amino acid positions 1-23 of the N-terminus of αS1 casein (SEQ ID NO: 22) (RPKHPIKHQGLPQEVLNENLLRF)	–	–	–	white blood cell reconstitution (in words) [4]: dramatic enhancement
κ-casein (106-169): gel filtration fraction comprising a peptide representing amino acid positions 106-169 of κ-casein	–	–	–	white blood cell reconstitution (in words) [4]: dramatic enhancement
